This note sets out measurements from ChEMBL document CHEMBL1148299 (J Med Chem, 2004).

Data set [1] is described as follows: (§1) Compound was tested for the inhibition of HIV-1 JrFL clinical isolate in PBMC cultures. It counts as functional. The settings on record: Homo sapiens.
A short description of data set [2]: (§2) Compound was tested for the inhibition of HIV-1 ADA-M clinical isolate in PBMC cultures. It counts as functional. To be noted: Homo sapiens.
A short description of data set [3]: (§3) Compound was tested for the inhibition of HIV-1 301657 clinical isolate in PBMC cultures. Format: functional. The settings on record: Homo sapiens.
Data set [4] can be described thus: (§4) Compound was tested for the inhibition of HIV-1 JV1083 clinical isolate in PBMC cultures. It counts as functional. To be noted: Homo sapiens.
Data set [5] is described as follows: (§5) Compound was tested for the inhibition of HIV-1 RU 570 clinical isolate in PBMC cultures. The settings on record: Homo sapiens. Format: functional.
A short description of data set [6]: Bioavailability after administration of 10 mg/kg in rats. The settings on record: rat, in vivo, read-out: Bioavailabiility. Format: ADME, organism-based.
A short description of data set [7]: Bioavailability in monkey (dose 2 mg/kg). Format: ADME, organism-based. The settings on record: cercopithecidae, in vivo.
Data set [8] in a line: Cmax 24 hr after 10 mg/kg oral administration in rats. To be noted: rat, in vivo. Set-up: dose 10 mg/kg, route oral. It counts as ADME, organism-based.
Data set [9] in a line: Half-life 24 hr after 2 mg/kg iv administration in monkeys. Format: ADME, organism-based. The settings on record: cercopithecidae, in vivo. Set-up: dose 2 mg/kg, route intravenous.
The subject of data set [10] is Rattus norvegicus. Kind of data set: Area under curve value 6 hr after po administration in rat. It counts as ADME, organism-based. More on the design: time < 6 hr, route oral; concentration or dose not given beside the values. To be noted: in vivo.
Data set [11] concerns the target T1, Muscarinic acetylcholine receptor M2 (Homo sapiens, UniProt P08172).
T1 sequence (P08172 whole entry): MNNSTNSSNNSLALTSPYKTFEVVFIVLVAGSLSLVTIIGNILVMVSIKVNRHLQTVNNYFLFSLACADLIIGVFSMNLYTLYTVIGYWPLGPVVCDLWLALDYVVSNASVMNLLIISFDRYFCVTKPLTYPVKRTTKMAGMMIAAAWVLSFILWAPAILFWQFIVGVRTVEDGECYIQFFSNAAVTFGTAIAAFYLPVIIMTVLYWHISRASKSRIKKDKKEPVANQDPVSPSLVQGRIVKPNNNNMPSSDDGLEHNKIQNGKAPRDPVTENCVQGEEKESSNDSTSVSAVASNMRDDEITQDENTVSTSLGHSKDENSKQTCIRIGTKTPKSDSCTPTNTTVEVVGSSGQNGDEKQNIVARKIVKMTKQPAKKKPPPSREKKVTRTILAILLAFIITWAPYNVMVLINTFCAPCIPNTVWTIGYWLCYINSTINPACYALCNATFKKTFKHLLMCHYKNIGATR
Put plainly: Antagonistic activity against Muscarinic acetylcholine receptor M2. It counts as functional.

Data set [12] is described as follows: Cmax 24 hr after 2 mg/kg oral administration in monkeys. Format: ADME, organism-based. Set-up: dose 2 mg/kg, route oral. To be noted: cercopithecidae, in vivo.
Data set [13] is described as follows: Compound was tested for inhibiting the entry of replication deffective HIV-1 (YU-2) in to […] cells. The settings on record: Homo sapiens. Format: functional, cell-based.
Data set [14] has as its target T2, Muscarinic acetylcholine receptor M1 (Homo sapiens, UniProt P11229).
T2 sequence (P11229 whole entry): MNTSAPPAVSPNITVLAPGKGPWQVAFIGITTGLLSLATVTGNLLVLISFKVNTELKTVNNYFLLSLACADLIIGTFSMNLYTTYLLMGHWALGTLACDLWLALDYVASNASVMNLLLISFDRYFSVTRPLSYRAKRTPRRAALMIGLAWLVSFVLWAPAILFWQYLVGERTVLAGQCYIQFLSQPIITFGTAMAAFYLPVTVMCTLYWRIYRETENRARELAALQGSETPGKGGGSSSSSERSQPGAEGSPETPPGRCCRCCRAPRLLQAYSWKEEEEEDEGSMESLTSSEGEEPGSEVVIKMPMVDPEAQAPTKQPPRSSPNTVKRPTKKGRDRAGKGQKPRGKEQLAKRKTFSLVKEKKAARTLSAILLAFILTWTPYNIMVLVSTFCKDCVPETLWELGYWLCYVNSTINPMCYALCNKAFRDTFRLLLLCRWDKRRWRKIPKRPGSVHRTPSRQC
Kind of data set: Antagonistic activity against muscarinic M1 receptor. It counts as functional.

Data set [15] is described as follows: Area under curve value 24 hr after 2 mg/kg oral administration in monkeys. Format: ADME, organism-based. More on the design: time < 24 hr, dose 2 mg/kg, route oral. To be noted: cercopithecidae, in vivo.
A short description of data set [16]: Half-life 24 hr after 10 mg/kg iv administration in rats. Format: ADME, organism-based. Set-up: dose 10 mg/kg, route intravenous. The settings on record: rat, in vivo.
Data set [17] has as its system Rattus norvegicus. Put plainly: Area under curve value 24 hr after 10 mg/kg iv administration in rats. Format: ADME, organism-based. More on the design: time < 24 hr, dose 10 mg/kg, route intravenous. To be noted: in vivo.
In data set [18] the test system is Rattus norvegicus. Put plainly: Area under curve value 24 hr after 10 mg/kg oral administration in rats. Format: ADME, organism-based. More on the design: time < 24 hr, dose 10 mg/kg, route oral. To be noted: in vivo.
The nature of data set [19]: Area under curve value 24 hr after 2 mg/kg iv administration in monkeys. To be noted: cercopithecidae, in vivo. Set-up: time < 24 hr, dose 2 mg/kg, route intravenous. Format: ADME, organism-based.
For data set [20], the target named is C-C chemokine receptor type 5 (Homo sapiens, UniProt P51681). Put plainly: Antagonistic activity against C-C chemokine receptor type 5. It counts as functional.
Chain of C-C chemokine receptor type 5 (P51681 whole entry): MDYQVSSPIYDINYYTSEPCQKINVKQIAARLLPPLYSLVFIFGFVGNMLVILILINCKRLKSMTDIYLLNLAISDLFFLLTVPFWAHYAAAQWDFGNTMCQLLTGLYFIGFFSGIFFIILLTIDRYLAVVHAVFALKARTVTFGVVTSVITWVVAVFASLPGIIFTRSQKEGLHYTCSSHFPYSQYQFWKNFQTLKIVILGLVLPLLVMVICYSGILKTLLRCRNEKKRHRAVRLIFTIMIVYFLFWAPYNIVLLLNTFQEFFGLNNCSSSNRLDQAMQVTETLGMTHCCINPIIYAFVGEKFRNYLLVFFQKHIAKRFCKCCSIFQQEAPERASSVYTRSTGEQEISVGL
The target in data set [21] is Muscarinic acetylcholine receptor M3 (Homo sapiens, UniProt P20309). Put plainly: Antagonistic activity against muscarinic M3 receptor. Format: functional.
Chain of Muscarinic acetylcholine receptor M3 (P20309 whole entry): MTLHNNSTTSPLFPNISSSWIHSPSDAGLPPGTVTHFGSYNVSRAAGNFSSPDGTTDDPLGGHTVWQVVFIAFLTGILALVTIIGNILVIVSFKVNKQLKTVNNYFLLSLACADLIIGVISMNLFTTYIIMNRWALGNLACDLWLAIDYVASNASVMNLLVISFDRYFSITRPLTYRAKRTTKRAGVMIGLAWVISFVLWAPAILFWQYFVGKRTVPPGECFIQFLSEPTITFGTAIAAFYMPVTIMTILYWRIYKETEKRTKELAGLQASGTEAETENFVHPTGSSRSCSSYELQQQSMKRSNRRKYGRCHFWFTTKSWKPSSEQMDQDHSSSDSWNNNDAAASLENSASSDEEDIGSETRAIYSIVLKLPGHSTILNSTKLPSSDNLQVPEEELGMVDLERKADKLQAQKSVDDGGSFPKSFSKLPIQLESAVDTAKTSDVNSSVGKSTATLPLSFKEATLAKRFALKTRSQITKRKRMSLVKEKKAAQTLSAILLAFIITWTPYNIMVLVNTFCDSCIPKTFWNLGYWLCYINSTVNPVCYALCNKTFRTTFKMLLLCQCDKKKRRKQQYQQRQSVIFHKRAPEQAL
Data set [22] is filed under the species Homo sapiens. The description is as §1. It counts as functional.
For data set [23], the species on record is Homo sapiens. The data set is described as §2. It counts as functional.
Data set [24] relates to Rattus norvegicus. Put plainly: Area under curve value 24 hr after 2 mg/kg oral administration in rats. To be noted: in vivo. More on the design: time < 24 hr, dose 2 mg/kg, route oral. It counts as ADME, organism-based.
A short description of data set [25]: Bioavailability after administration of 2 mg/kg in rats. The settings on record: rat, in vivo, read-out: Bioavailabiility. It counts as ADME, organism-based.
Data set [26] can be described thus: Half-life 24 hr after 2 mg/kg iv administration in rats. Format: ADME, organism-based. Set-up: dose 2 mg/kg, route intravenous. The settings on record: rat, in vivo.
Data set [27] can be described thus: Cmax 24 hr after 2 mg/kg oral administration in rats. More on the design: dose 2 mg/kg, route oral. It counts as ADME, organism-based. To be noted: rat, in vivo.
The species entered for data set [28] is Homo sapiens. The description is as §3. It counts as functional.
The species named for data set [29] is Homo sapiens. Described as §4. Format: functional.
Data set [30] deals with Rattus norvegicus. Kind of data set: Area under curve value 24 hr after 2 mg/kg iv administration in rats. It counts as ADME, organism-based. Set-up: time < 24 hr, dose 2 mg/kg, route intravenous. The settings on record: in vivo.
For data set [31], the species on record is Homo sapiens. Described as §5. It counts as functional.

Regarding `CCO/N=C(\c1ccc(Br)cc1)C1CCN(C2(C)CCN(C(=O)c3c(C)cc[n+]([O-])c3C)CC2)CC1` [ANCRIVIROC], the IC90 (in general, the point of the concentration-response curve where the effect stands at 90%) was found to be 19 nM in data set [1]; 25 nM in [2]; 43 nM in [3]; 10 nM in [4]; 400 nM in data set [5].

For the compound `COC[C@@H](c1ccc(C(F)(F)F)cc1)N1CCN(C2(C)CCN(C(=O)c3c(C)ncnc3C)CC2)C[C@@H]1C` [VICRIVIROC], the bioavailability in data set [6] stood at 100%; in data set [7] it was 89%. Moreover, the IC90 in data set [1] came out at 3.3 nM; in data set [2], 2.8 nM; in data set [3], 1.8 nM; in [4], 4.9 nM; in data set [5] it was 10 nM. For the same compound, the results for the Cmax in [8] and in data set [12] were 2300 ng/mL and 670 ng/mL, respectively. For the same compound, the half-life – broadly, the time in which the quantity being followed falls by half – in data set [9] is 210 min; in data set [16] it was 480 min. Besides, the AUC 0-6h in the data set on Rattus norvegicus [10] is 6900 ng·h/mL. Further, the Ki in data set [11] and in [14] was more than 10 µM throughout. Also, in [13], the IC50 (usually the concentration that inhibits the measured activity by half) came out at 0.46 nM. Besides, the AUC 0-24h in [15] turned out to be 1990 ng·h/mL; in the data set on Rattus norvegicus [17], 21000 ng·h/mL; with Rattus norvegicus [18], 21000 ng·h/mL; in data set [19], 2240 ng·h/mL.

`Cc1ncnc(C)c1C(=O)N1CCC(C)(N2CCN([C@@H](CCC(F)(F)F)c3ccc(C(F)(F)F)cc3)[C@@H](C)C2)CC1` had an AUC 0-6h with Rattus norvegicus [10] of 4600 ng·h/mL. Moreover, the figures for the inhibition constant (Ki) in data set [11] and in data set [14] were more than 6.7 µM and more than 3.7 µM, respectively. This compound also gave an IC50 in [13] of 1.44 nM.

For the compound `Cc1ncnc(C)c1C(=O)N1CCC(C)(N2CCN([C@@H](CC3CC3)c3ccc(C(F)(F)F)cc3)[C@@H](C)C2)CC1`, the AUC 0-6h in the data set on Rattus norvegicus [10] amounted to 5900 ng·h/mL. In addition, the Ki (in general, the dissociation constant of the complex between target and ligand, obtained from inhibition or displacement) in data set [20] was 1.6 nM; in data set [11], 3.51 µM; in data set [14] it was 1.89 µM. This compound also displayed an IC50 in [13] of 0.8 nM.

With `Cc1ncnc(C)c1C(=O)N1CCC(C)(N2CCN([C@@H](C)c3ccc(C(F)(F)F)cc3)[C@@H](C)C2)CC1`, the IC90 in data set [1] was 40 nM; in [2], 19 nM; in data set [3] it was 13 nM; in data set [4] it was 31 nM; in data set [5], more than 1000 nM. Besides, the Ki in data set [21] stood at 0.716 µM; in data set [14], 0.575 µM. In addition, the AUC 0-6h in the data set on Rattus norvegicus [10] was 6210 ng·h/mL. In [13], this compound came in with an IC50 of 0.39 nM.

As to `Cc1ncnc(C)c1C(=O)N1CCC(C)(N2CCN([C@@H](Cc3ccccc3)c3ccc(C(F)(F)F)cc3)[C@@H](C)C2)CC1`, the IC90 stood at 0.19 nM in data set [1]; 0.04 nM in data set [2]; 0.6 nM in data set [3]; 0.25 nM in data set [4]; 4 nM in [5]. In addition, the inhibitory constant (Ki) is more than 5.3 µM in data set [21], 1.4 nM in data set [20], more than 5.7 µM in [11] and more than 3.9 µM in data set [14]. In addition, the AUC 0-6h in the data set with Rattus norvegicus [10] stood at 2030 ng·h/mL. In addition, 0.13 nM corresponded to half-maximal inhibition in [13] (IC50).

For the compound `CC[C@@H](c1ccc(C(F)(F)F)cc1)N1CCN(C2(C)CCN(C(=O)c3c(C)ncnc3C)CC2)C[C@@H]1C`, the 90% effect concentration (IC90) was determined as 19 nM in data set [1]; 21 nM in [2]; 16 nM in data set [3]; 18 nM in data set [4]; 1000 nM in data set [5]. Moreover, the inhibition constant Ki in [21] is 9.09 µM; in [20], 5.2 nM; in data set [11], 4.75 µM; in data set [14], 3.9 µM. Also, in the data set on Rattus norvegicus [10], the AUC 0-6h was 7310 ng·h/mL. The IC50 in data set [13] is 0.18 nM.

For the compound `CCC[C@@H](c1ccc(C(F)(F)F)cc1)N1CCN(C2(C)CCN(C(=O)c3c(C)ncnc3C)CC2)C[C@@H]1C`, the concentration for an effect of 90% (IC90) in the data set listed under Homo sapiens [22] came to 0.01 nM; in the data set filed under Homo sapiens [23] it was 0.03 nM; in the data set filed under Homo sapiens [28] it was 0.09 nM; in the data set listed under Homo sapiens [29], 0.27 nM; in the data set listed under Homo sapiens [31], 0.43 nM. For the same compound, the bioavailability in data set [7] came out at 66%; in data set [25] it was 72%. The figures for the half-life in data set [9] and in data set [26] were 378 min and 930 min, respectively. Besides, the Ki in [21] was more than 5.3 µM; in [20] it was 1.1 nM; in data set [11], 4.76 µM; in data set [14] it was 6.07 µM. Also, the AUC 0-6h with Rattus norvegicus [10] turned out to be 4600 ng·h/mL. Further, the AUC 0-24h turned out to be 3270 ng·h/mL in the data set on Rattus norvegicus [24], 1760 ng·h/mL in data set [15], 4550 ng·h/mL in the data set on Rattus norvegicus [30] and 2670 ng·h/mL in [19]. Also, the Cmax (commonly the maximum level reached in the sampled fluid or tissue) in data set [12] amounted to 240 ng/mL; in data set [27], 311 ng/mL. This compound also had a half-maximal inhibitory concentration (IC50) in [13] of 0.35 nM.
